SMILES strings stand for the structures.

For test [1], the target named is T1, menin protein (Homo sapiens, UniProt O00255).
T1 sequence (O00255 1-610): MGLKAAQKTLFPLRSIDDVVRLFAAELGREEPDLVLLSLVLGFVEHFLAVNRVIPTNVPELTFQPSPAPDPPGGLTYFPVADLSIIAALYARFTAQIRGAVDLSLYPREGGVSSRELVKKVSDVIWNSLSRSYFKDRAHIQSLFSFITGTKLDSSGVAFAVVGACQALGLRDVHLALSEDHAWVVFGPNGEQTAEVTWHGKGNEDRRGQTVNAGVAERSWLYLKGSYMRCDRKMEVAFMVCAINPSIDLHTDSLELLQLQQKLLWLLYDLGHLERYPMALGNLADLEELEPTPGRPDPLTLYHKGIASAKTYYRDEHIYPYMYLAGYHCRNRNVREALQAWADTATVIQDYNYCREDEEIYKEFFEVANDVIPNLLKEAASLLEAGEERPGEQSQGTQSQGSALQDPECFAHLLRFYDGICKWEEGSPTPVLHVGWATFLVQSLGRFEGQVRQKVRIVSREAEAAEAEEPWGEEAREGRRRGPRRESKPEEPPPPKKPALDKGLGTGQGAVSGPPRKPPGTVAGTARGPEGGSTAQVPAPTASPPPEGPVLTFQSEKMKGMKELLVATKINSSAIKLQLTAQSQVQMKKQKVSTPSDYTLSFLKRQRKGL
The test can be described thus: Fluorescence polarization (FP) competitive binding assay, menin binding affinity. The settings on record: FP competition with FAM-MM2 probe 2 nM, menin 4 nM, 30 minutes room temperature. The gist of the method:
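Competitive FP with FAM-labeled MLL1 peptide probe FAM-MM2 (2 nM) and menin (4 nM) in PBS, 0.02% bovine γ-globulin, 4% DMSO, 0.01% Triton X-100. After 30 min at room temperature, mP read at 485/530 nm; IC50 from nonlinear regression against probe-only and complex-only controls.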
On the technique in general: Fluorescence polarisation rises when a labelled molecule tumbles more slowly, as on binding a larger partner.

For test [2], the system named is MOLM13. In words: 7-day proliferation assay (WST-8), cell growth inhibition. Format: cell-based. The settings on record: Homo sapiens, MOLM-13, 168 h, MOLM13 cells, 7 days. Summed up: (§1)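 Cells seeded at 2,000-3,000/well were exposed to serially diluted compound for 7 days at 37° C., 5% CO2. Viability was read by WST-8 absorbance at 450 nm after 1-2 h color development; readings normalized to DMSO-treated cells, IC50 by four-parameter nonlinear regression.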
A general note: Formazan colour is commonly taken as a measure of viable cells.

Test [3] relates to MV4-11. Described as above. Format: cell-based. Conditions: Homo sapiens, MV4-11, 168 h, MV4-11 cells, 7 days. The gist of the method: as §1

On to `COC(=O)N[C@H]1CCC[C@@H]1[C@](CN(C)C)(c1cccc(F)c1)C1CCN(CC2CN(c3ccc(S(=O)(=O)C4CN(C(=O)/C=C/CN(C)C)C4)cc3)C2)CC1` [Cpd. No. 2, methyl ((1S,2R)-2-((S)-2-(dimethylamino)-1-(1-((1-(4-((1-((E)-4-(dimethylamino)but-2-enoyl)azetidin-3-yl)sulfonyl)phenyl)azetidin-3-yl)methyl)piperidin-4-yl)-1-(3-fluorophenyl)ethyl)cyclopentyl)carbamate], for which the values for the IC50 in test [1], in test [2] and in test [3] were 5 nM, less than 10 nM and less than 10 nM, respectively.
Turning to `COC(=O)N[C@H]1CCC[C@@H]1[C@](CN1CCCC1)(c1cccc(F)c1)C1CCN(CC2CN(c3ccc(S(=O)(=O)C4CN(C(=O)/C=C/CN(C)C)C4)cc3)C2)CC1` [Cpd. No. 3], the IC50 in test [1] was 2 nM; in test [2] it was less than 50 nM; in test [3], less than 50 nM.
Take `COC(=O)N[C@H]1CCC[C@@H]1[C@](CN1CCC1)(c1cccc(F)c1)C1CCN(CC2CN(c3ccc(S(=O)(=O)C4CN(C(=O)/C=C/CN(C)C)C4)cc3)C2)CC1` [Cpd. No. 5, methyl ((1S,2R)-2-((S)-2-(azetidin-1-yl)-1-(1-((1-(4-((1-((E)-4-(dimethylamino)but-2-enoyl)azetidin-3-yl)sulfonyl)phenyl)azetidin-3-yl)methyl)piperidin-4-yl)-1-(3-fluorophenyl)ethyl)cyclopentyl)carbamate]: the IC50 was 3 nM in test [1], less than 50 nM in test [2] and less than 10 nM in test [3].
Consider `COC(=O)N[C@H]1CCC[C@@H]1[C@](CN1CCC1)(c1cccc(F)c1)C1CCN(CC2(F)CN(c3ccc(S(=O)(=O)C4CN(C(=O)/C=C/CN(C)C)C4)cc3)C2)CC1` [Cpd. No. 7, methyl ((1S,2R)-2-((S)-2-(azetidin-1-yl)-1-(1-((1-(4-((1-((E)-4-(dimethylamino)but-2-enoyl)azetidin-3-yl)sulfonyl)phenyl)-3-fluoroazetidin-3-yl)methyl)piperidin-4-yl)-1-(3-fluorophenyl)ethyl)cyclopentyl)carbamate], for which the IC50 is 2 nM in test [1], less than 100 nM in test [2] and less than 10 nM in test [3].
For `C=C(CN1CCOCC1)C(=O)N1CC(S(=O)(=O)c2ccc(N3CC(F)(CN4CCC([C@@](CN5CCC5)(c5cccc(F)c5)[C@H]5CCC[C@@H]5NC(=O)OC)CC4)C3)cc2)C1` [Cpd. No. 12, methyl ((1S,2R)-2-((S)-2-(azetidin-1-yl)-1-(1-((3-fluoro-1-(4-((1-(2-(morpholinomethyl)acryloyl)azetidin-3-yl)sulfonyl)phenyl)azetidin-3-yl)methyl)piperidin-4-yl)-1-(3-fluorophenyl)ethyl)cyclopentyl)carbamate], in that order: 2 nM, less than 100 nM and less than 10 nM.
`C=C(CN(C)C)C(=O)N1CC(S(=O)(=O)c2ccc(N3CC(F)(CN4CCC([C@@](CN5CCC5)(c5cccc(F)c5)[C@H]5CCC[C@@H]5NC(=O)OC)CC4)C3)cc2)C1` [Cpd. No. 13, methyl ((1S,2R)-2-((S)-2-(azetidin-1-yl)-1-(1-((1-(4-((1-(2-((dimethylamino)methyl)acryloyl)azetidin-3-yl)sulfonyl)phenyl)-3-fluoroazetidin-3-yl)methyl)piperidin-4-yl)-1-(3-fluorophenyl)ethyl)cyclopentyl)carbamate]: the IC50 in test [1] is 1 nM; in test [2] it was less than 100 nM; in test [3], less than 10 nM.
For `C=C(CN1CCCCC1)C(=O)N1CC(S(=O)(=O)c2ccc(N3CC(CN4CCC([C@@](CN5CCC5)(c5cccc(F)c5)[C@H]5CCC[C@@H]5NC(=O)OC)CC4)C3)cc2)C1` [Cpd. No. 17, methyl ((1S,2R)-2-((S)-2-(azetidin-1-yl)-1-(3-fluorophenyl)-1-(1-((1-(4-((1-(2-(piperidin-1-ylmethyl)acryloyl)azetidin-3-yl)sulfonyl)phenyl)azetidin-3-yl)methyl)piperidin-4-yl)ethyl)cyclopentyl)carbamate], in that order: 2 nM, less than 100 nM and less than 10 nM.
Take `C=C(CN1CCCCC1)C(=O)N1CC(S(=O)(=O)c2ccc(N3CC(F)(CN4CCC([C@@](CN5CCC5)(c5cccc(F)c5)[C@H]5CCC[C@@H]5NC(=O)OC)CC4)C3)cc2)C1` [Cpd. No. 18, methyl ((1S,2R)-2-((S)-2-(azetidin-1-yl)-1-(1-((3-fluoro-1-(4-((1-(2-(piperidin-1-ylmethyl)acryloyl)azetidin-3-yl)sulfonyl)phenyl)azetidin-3-yl)methyl)piperidin-4-yl)-1-(3-fluorophenyl)ethyl)cyclopentyl)carbamate]: the figures for the IC50 in test [1], in test [2] and in test [3] were 2 nM, less than 100 nM and less than 10 nM, respectively.
In the case of `C=C(CN1CCCC1)C(=O)N1CC(S(=O)(=O)c2ccc(N3CC(CN4CCC([C@@](CN5CCC5)(c5cccc(F)c5)[C@H]5CCC[C@@H]5NC(=O)OC)CC4)C3)cc2)C1` [Cpd. No. 19, methyl ((1S,2R)-2-((S)-2-(azetidin-1-yl)-1-(3-fluorophenyl)-1-(1-((1-(4-((1-(2-(pyrrolidin-1-ylmethyl)acryloyl)azetidin-3-yl)sulfonyl)phenyl)azetidin-3-yl)methyl)piperidin-4-yl)ethyl)cyclopentyl)carbamate], the IC50 was 1 nM in test [1], less than 100 nM in test [2] and less than 10 nM in test [3].
For `COC(=O)N[C@H]1CCC[C@@H]1[C@](CN1CCC1)(c1cccc(F)c1)C1CCN(CC2CN(c3ccc(S(=O)(=O)C4CN(C(=O)/C=C/CN5CCCC5)C4)cc3)C2)CC1` [Cpd. No. 20, methyl ((1S,2R)-2-((S)-2-(azetidin-1-yl)-1-(3-fluorophenyl)-1-(1-((1-(4-((1-((E)-4-(pyrrolidin-1-yl)but-2-enoyl)azetidin-3-yl)sulfonyl)phenyl)azetidin-3-yl)methyl)piperidin-4-yl)ethyl)cyclopentyl)carbamate], in that order: 2 nM, less than 100 nM and less than 10 nM.
In the same order, the values of `COC(=O)N[C@H]1CCC[C@@H]1[C@](CN1CCC1)(c1cccc(F)c1)C1CCN(CC2CN(c3ccc(S(=O)(=O)C4CN(C(=O)/C=C/CN5CCCCC5)C4)cc3)C2)CC1` [Cpd. No. 24, methyl ((1S,2R)-2-((S)-2-(azetidin-1-yl)-1-(3-fluorophenyl)-1-(1-((1-(4-((1-((E)-4-(piperidin-1-yl)but-2-enoyl)azetidin-3-yl)sulfonyl)phenyl)azetidin-3-yl)methyl)piperidin-4-yl)ethyl)cyclopentyl)carbamate] are 3 nM, less than 10 nM and less than 10 nM.
In the same order, the values of `COC(=O)N[C@H]1CCC[C@@H]1[C@](CN1CCC1)(c1cccc(F)c1)C1CCN(CC2CN(c3ccc(S(=O)(=O)C4CN(C(=O)/C=C/CN5CC(F)C5)C4)cc3)C2)CC1` [Cpd. No. 174] are 2 nM, less than 10 nM and less than 10 nM.
In the case of `COC(=O)N[C@H]1CCC[C@@H]1[C@](CN1CCC1)(c1cccc(F)c1)C1CCN(CC2CN(c3ccc(S(=O)(=O)C4CN(C(=O)/C=C/CN5CC(F)(F)C5)C4)cc3)C2)CC1` [Cpd. No. 175], the IC50 in test [1] is 1 nM; in test [2] it was less than 10 nM; in test [3], less than 10 nM.

One may read the IC50 as the point on the concentration scale where inhibition reaches its midpoint.

(Values after patent US20210115018A1, “PIPERIDINE COMPOUNDS AS COVALENT MENIN INHIBITORS” (THE REGENTS OF THE UNIVERSITY OF MICHIGAN, priority 2018, published 2021).)
